In test [1] the target is recombinant human Bcl-2-G101V protein (Homo sapiens (Human), UniProt P10415, G101V). Nature of the test: Bcl-2-G101V TR-FRET Assay. It is filed as binding. The note with it: Bcl-2 G101V mutant, TR-FRET; read-out: Biochemical assay (IC50, nM) Bcl-2 G101V. Put shortly: (§1)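 Compounds were titrated at increasing concentrations against the Bcl-2-G101V–ligand interaction. TR-FRET signals were then read (ex 337 nm; em 490/520 nm). Percent inhibition was derived from the 490-to-520 nm ratio, and IC50 from a four-parameter logistic equation.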
Background: TR-FRET usually uses a lanthanide donor and a delayed reading to cut background.

For test [2], the system named is recombinant human Bcl-2-G101V protein. The test is described as follows: Bcl-2-G101V TR-FRET Assay. The format is binding. The note with it: for Ratio of Bcl-2 G101V/WT: ratio of biochemical IC50 Bcl-2 G101V / Bcl-2 WT. The procedure, abridged:
as §1

Test [3] has as its system BCL-2 G101V knock-in cell line H96 (derive from RS4;11). Nature of the test: Bcl 2-G101V Knock-In RS4;11 Cell Proliferation Assay. It is filed as cell-based. As to conditions: Homo sapiens, RS4;11 Bcl-2 G101V knock-in clone H96, 48 hrs, CellTiter-GLO, read-out: Cellular proliferation assay (IC50, nM) RS4. The procedure, abridged:
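H96, a CRISPR-generated RS4;11 clone carrying BCL2-G101V knock-in (WES/RNA-seq validated), seeded 50,000 per well and exposed 48 h at 37 °C to 10-point dilutions topping at 1 or 10 μM. Viability by CellTiter-Glo luminescence; mean IC50.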

In test [4] the target is Recombinant human Bcl-2 protein (Homo sapiens (Human), UniProt P10415). Nature of the test: Bcl-2 TR-FRET Assay. The format is binding. Put shortly:
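0.05 nM Bcl-2 pre-incubated 0.5 h at room temperature with 10-point compound dilutions (top final 1, 0.1, 0.02 or 0.01 uM) in 20 mM potassium phosphate pH 7.5, 50 mM NaCl, 1 mM EDTA, 0.05% Tween-20, 0.01% BSA; FITC-Bak peptide (0.5 nM) and anti-6His Tb cryptate added, 1 h. IC50 from four-parameter logistic fit.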

The test system of test [5] is RS4;11 (BCL-2 dependent acute lymphoblastic leukemia cell line). The test is described as follows: RS4;11 Cell Proliferation Assay. The format is cell-based. As to conditions: read-out: Cellular proliferation assay (IC50, nM) RS4. Put shortly:
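RS4;11 cells, 50,000 per well in RPMI-1640 with 10% FBS, treated 48 h at 37 °C with a 10-point dilution series topping at 1 μM. Viability read by CellTiter-Glo ATP luminescence; mean IC50 reported.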

Test [6] deals with recombinant human Bcl-2 D103Y protein (Homo sapiens (Human), UniProt P10415, D103Y). Nature of the test: Bcl-2-D103Y Biochemical Assay (TR-FRET). It is filed as binding. As to conditions: for IC50: TR-FRET, FITC labeled Bak peptide; for Ratio of Bcl-2 D103Y/Bcl-2 WT: ratio of IC50; for ratio of Bcl-2 D103Y/Bcl-2 wt, compared with F91b in WO2019210828: comparison in words. Put shortly:
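Recombinant human Bcl-2 D103Y binding to its ligand measured by TR-FRET (ex 337 nm, em 490/520 nm) with increasing compound concentrations. Percent inhibition from the 490/520 nm ratio; IC50 from four-parameter logistic fit.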

[7] abbreviates: Bcl-2 wild type, TR-FRET, read-out: Biochemical assay (IC50, nM) Bcl-2 WT.
Where [8] appears, read: wild type Bcl-2, unit inferred, read-out: Bcl-2 WT.
Setting [9] is: Homo sapiens, RS4-11, RS4;11 cells.

Like-named read-outs stand apart in the source and are kept apart here.

The text below walks through data of patent publication US20240376097A1, “BCL-2 Inhibitor” (BeiGene Ltd., priority 2020, published 2024).

Consider `COc1ccc(CN2CCN(C3CC4(CCN(c5ccc(C(=O)NS(=O)(=O)c6ccc(NC[C@H]7CC[C@](C)(O)CC7)c([N+](=O)[O-])c6)c(Oc6cnc7[nH]cc(F)c7c6)c5)CC4)C3)[C@H](c3ccccc3C(C)C)C2)cn1` [Example 217, 2-((3-fluoro-1H-pyrrolo[2,3-b]pyridin-5-yl)oxy)-N-((4-((((1r,4r)-4-hydroxy-4-methylcyclohexyl)methyl)amino)-3-nitrophenyl)sulfonyl)-4-(2-((R)-2-(2-isopropylphenyl)-4-((6-methoxypyridin-3-yl)methyl)piperazin-1-yl)-7-azaspiro[3.5]nonan-7-yl)benzamide], for which the IC50 in test [1] is 0.17 nM; in test [3], 0.41 nM; in test [4] (setting [7]) it was 0.074 nM; in test [4] (setting [8]) it was 0.074 nM; in test [5] (setting [9]), 0.11 nM; in test [6] it was 0.1 nM. Also, the “Ratio of Bcl-2 G101V/WT” value in test [2] came to 2.4. Further, the “Ratio of Bcl-2 D103Y/Bcl-2 WT” value in test [6] came to 1.4.
For the compound `COc1cc(CN2CCN(C3CC4(C3)CN(c3ccc(C(=O)NS(=O)(=O)c5ccc(NC[C@H]6CC[C@](C)(O)CC6)c([N+](=O)[O-])c5)c(Oc5cnc6[nH]ccc6c5)c3)C4)[C@H](c3ccccc3C(C)C)C2)ccc1C` [Example 275, 2-((1H-pyrrolo[2,3-b]pyridin-5-yl)oxy)-N-((4-((((1r,4r)-4-hydroxy-4-methylcyclohexyl)methyl)amino)-3-nitrophenyl)sulfonyl)-4-(6-((R)-2-(2-isopropylphenyl)-4-(3-methoxy-4-methylbenzyl)piperazin-1-yl)-2-azaspiro[3.3]heptan-2-yl)benzamide], the IC50 in test [1] was found to be 0.54 nM; in test [3] it was 0.38 nM; in test [4] (setting [7]), 0.27 nM; in test [4] (setting [8]), 0.27 nM; in test [5] (setting [9]), 0.14 nM; in test [6], 0.21 nM. Besides, in test [2], the “Ratio of Bcl-2 G101V/WT” value is given as 2. The “Ratio of Bcl-2 D103Y/Bcl-2 WT” value in test [6] is reported as 0.76.
`CC(C)c1ccccc1C1CN(C(C)c2ccccc2)CCN1C1CC2(CCN(c3ccc(C(=O)NS(=O)(=O)c4ccc(NC[C@H]5CC[C@](C)(O)CC5)c([N+](=O)[O-])c4)c(Oc4cnc5[nH]ccc5c4)c3)CC2)C1` (single isomer, unassigned) [Example 24b, 2-((1H-pyrrolo[2,3-b]pyridin-5-yl)oxy)-N-((4-((((1r,4r)-4-hydroxy-4-methylcyclohexyl)methyl)amino)-3-nitrophenyl)sulfonyl)-4-(2-(2-(2-isopropylphenyl)-4-(1-phenylethyl)piperazin-1-yl)-7-azaspiro[3.5]nonan-7-yl)benzamide]: the IC50 is 1.1 nM in test [1]; 6.49 nM in test [3]; 0.24 nM in test [4] (setting [7]); 0.24 nM in test [4] (setting [8]); 0.75 nM in test [5] (RS4;11 cells); 0.56 nM in test [6]. Moreover, in test [2] (comparison in words), the “ratio of IC50 of Bcl-2 G101V/Bcl-2 wt, compared with Example F132b in WO2019210828 and ABT-199 (venetoclax)” value is “much lower”. Further, the “Ratio of Bcl-2 G101V/WT” value in test [2] came to 4.6. In addition, the “ratio of Bcl-2 D103Y/Bcl-2 wt, compared with F91b in WO2019210828” value in test [6] was “significantly lower”. For the same compound, in test [6], the “Ratio of Bcl-2 D103Y/Bcl-2 WT” value is listed as 2.3.
For the compound `COc1cc(CN2CCN(C3CC4(C3)CN(c3ccc(C(=O)NS(=O)(=O)c5ccc(NC[C@H]6CC[C@](C)(O)CC6)c([N+](=O)[O-])c5)c(Oc5cnc6[nH]cc(F)c6c5)c3)C4)[C@H](c3ccccc3C(C)C)C2)cnc1OC` [Example 205, 4-(6-((R)-4-((5,6-dimethoxypyridin-3-yl)methyl)-2-(2-isopropylphenyl)piperazin-1-yl)-2-azaspiro[3.3]heptan-2-yl)-2-((3-fluoro-1H-pyrrolo[2,3-b]pyridin-5-yl)oxy)-N-((4-((((1r,4r)-4-hydroxy-4-methylcyclohexyl)methyl)amino)-3-nitrophenyl)sulfonyl) benzamide], the IC50 in test [1] turned out to be 0.07 nM; in test [3] it was 0.55 nM; in test [4] (setting [7]), 0.034 nM; in test [4] (setting [8]) it was 0.034 nM; in test [5] (setting [9]), 0.39 nM; in test [6], 0.047 nM. For the same compound, in test [2], the “Ratio of Bcl-2 G101V/WT” value is listed as 2. Moreover, the “Ratio of Bcl-2 D103Y/Bcl-2 WT” value in test [6] is listed as 1.4.
As to `COc1ccc(CN2CCN(C3CC4(C3)CN(c3ccc(C(=O)NS(=O)(=O)c5ccc(NC[C@H]6CC[C@](C)(O)CC6)c([N+](=O)[O-])c5)c(Oc5cnc6[nH]cc(Cl)c6c5)c3)C4)[C@H](c3ccccc3C(C)C)C2)cc1OC` [Example 164, 2-((3-chloro-1H-pyrrolo[2,3-b]pyridin-5-yl)oxy)-4-(6-((R)-4-(3,4-dimethoxybenzyl)-2-(2-isopropylphenyl)piperazin-1-yl)-2-azaspiro[3.3]heptan-2-yl)-N-((4-((((1r,4r)-4-hydroxy-4-methylcyclohexyl)methyl)amino)-3-nitrophenyl)sulfonyl)benzamide], the IC50 in test [1] is 0.35 nM; in test [3], 0.82 nM; in test [4] (setting [7]), 0.12 nM; in test [4] (setting [8]), 0.12 nM; in test [5] (setting [9]), 0.23 nM; in test [6] it was 0.12 nM. Moreover, the “Ratio of Bcl-2 G101V/WT” value in test [2] turned out to be 3. Also, in test [6], the “Ratio of Bcl-2 D103Y/Bcl-2 WT” value is recorded as 1.
`CC(C)c1ccccc1C1CC(Oc2ccccc2)CCN1C1CC2(CCN(c3ccc(C(=O)NS(=O)(=O)c4ccc(NC[C@H]5CC[C@](C)(O)CC5)c([N+](=O)[O-])c4)c(Oc4cnc5[nH]ccc5c4)c3)CC2)C1` (some centres unmarked) [Example 68, 2-((1H-pyrrolo[2,3-b]pyridin-5-yl)oxy)-N-((4-((((1r,4r)-4-hydroxy-4-methylcyclohexyl)methyl)amino)-3-nitrophenyl)sulfonyl)-4-(2-(2-(2-isopropylphenyl)-4-phenoxypiperidin-1-yl)-7-azaspiro [3.5]nonan-7-yl)benzamide]: the IC50 in test [1] amounted to 0.81 nM; in test [3], 4.7 nM; in test [4] (setting [7]) it was 0.2 nM; in test [4] (setting [8]), 0.2 nM; in test [5] (setting [9]) it was 0.47 nM; in test [6], 0.87 nM. Further, the “Ratio of Bcl-2 G101V/WT” value in test [2] is reported as 4. Further, in test [6], the “ratio of Bcl-2 D103Y/Bcl-2 wt, compared with F91b in WO2019210828” value is reported as “significantly lower”. In addition, the “Ratio of Bcl-2 D103Y/Bcl-2 WT” value in test [6] was found to be 4.3.
For the compound `CC(C)c1ccccc1C1CN(C2COC2)CCN1C1CC2(CCN(c3ccc(C(=O)NS(=O)(=O)c4ccc(NC[C@H]5CC[C@](C)(O)CC5)c([N+](=O)[O-])c4)c(Oc4cnc5[nH]ccc5c4)c3)CC2)C1` (some centres unmarked) [Example 6, 2-((1H-pyrrolo[2,3-b]pyridin-5-yl)oxy)-N-((4-((((1r,4r)-4-hydroxy-4-methylcyclohexyl)methyl)amino)-3-nitrophenyl)sulfonyl)-4-(2-(2-(2-isopropylphenyl)-4-(oxetan-3-yl)piperazin-1-yl)-7-azaspiro[3.5]nonan-7-yl)benzamide], the IC50 in test [1] was 0.32 nM; in test [3], 4.83 nM; in test [4] (setting [7]), 0.013 nM; in test [4] (setting [8]), 0.013 nM; in test [5] (setting [9]), 0.53 nM; in test [6], 0.18 nM. The “Ratio of Bcl-2 G101V/WT” value in test [2] is listed as 24.6. In addition, the “Ratio of Bcl-2 D103Y/Bcl-2 WT” value in test [6] was 24.
Regarding `COc1ccc(CN2CCN(C3CC4(C3)CN(c3ccc(C(=O)NS(=O)(=O)c5ccc(NC[C@H]6CC[C@](C)(O)CC6)c([N+](=O)[O-])c5)c(Oc5cnc6[nH]cc(F)c6c5)c3)C4)[C@H](c3ccccc3C(C)C)C2)cn1` [Example 215, 2-((3-fluoro-1H-pyrrolo[2,3-b]pyridin-5-yl)oxy)-N-((4-((((1r,4r)-4-hydroxy-4-methylcyclohexyl)methyl)amino)-3-nitrophenyl)sulfonyl)-4-(6-((R)-2-(2-isopropylphenyl)-4-((6-methoxypyridin-3-yl)methyl)piperazin-1-yl)-2-azaspiro[3.3]heptan-2-yl)benzamide], the IC50 came out at 0.14 nM in test [1]; 0.29 nM in test [3]; 0.057 nM in test [4] (setting [7]); 0.057 nM in test [4] (setting [8]); 0.11 nM in test [5] (setting [9]); 0.062 nM in test [6]. Further, in test [2], the “Ratio of Bcl-2 G101V/WT” value stood at 2.5. The “Ratio of Bcl-2 D103Y/Bcl-2 WT” value in test [6] came out at 1.1.
Regarding `COc1cc(CN2CCN(C3CC4(C3)CN(c3ccc(C(=O)NS(=O)(=O)c5ccc(NC[C@H]6CC[C@](C)(O)CC6)c([N+](=O)[O-])c5)c(Oc5cnc6[nH]cc(F)c6c5)c3)C4)[C@H](c3ccccc3C(C)C)C2)ccc1C1CCOCC1` [Example 367], the IC50 amounted to 0.9 nM in test [1]; 0.3 nM in test [3]; 0.35 nM in test [4] (setting [7]); 0.11 nM in test [5] (setting [9]); 0.4 nM in test [6]. In test [2], the “Ratio of Bcl-2 G101V/WT” value was 2.6. Moreover, the “Ratio of Bcl-2 D103Y/Bcl-2 WT” value in test [6] amounted to 1.2.
